Results reported in US20240199605A1, “SMALL MOLECULAR INHIBITORS OF NF-kB INDUCING KINASE” (Janssen Pharmaceutica NV, priority 2019, published 2024).

Columns and labels:
[1] = tested on: p-IKKα levels in L363 (NIK translocated multiple myeloma) cells; assay: Effect of compounds on p-IKKα levels in L363 cells (AlphaLISA SureFire Ultra); type: cell-based, human; conditions: Homo sapiens, L-363, 6 h, BAFF stimulated, MG132, 6 h, average of values, read-out: Assay 2 IC50
In short: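 Inhibition of p-IKKα (Ser176/180) read by AlphaLISA after 6 h, 37 °C compound exposure (11-point 1:3 series, 0.3% DMSO) of L363 cells pre-incubated overnight ± 250 ng/ml BAFF and plated ± BAFF ± 10 μM MG132. Normalised to BAFF/MG132/DMSO and unstimulated controls; IC50 by sigmoidal fitting, duplicates.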

[2] = molecular target: recombinant human NF-kappaB-inducing kinase (NIK/MAP3K14) (Homo sapiens (Human), UniProt Q99558); assay: Inhibition of auto-phosphorylation of recombinant human NIK/MAP3K14 (AlphaScreen); type: biochemical; conditions: NIK auto-phosphorylation, 5 μM ATP, 1 nM NIK, 2 h at 25° C.; average of values
In short: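 GST-tagged NIK (1 nM) auto-phosphorylated with 5 μM ATP for 2 h at 25° C. in 50 mM Tris pH 7.5, 5 mM MgCl2, 1 mM EGTA, 1 mM DTT, 0.1 mM Na3VO4, 0.01% Tween 20 (0.7% DMSO). Detected by AlphaScreen via anti-phospho-IKK Ser176/180 antibody; IC50 from sigmoidal fit of % inhibition versus log concentration.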

Chain of recombinant human NF-kappaB-inducing kinase (NIK/MAP3K14) (Q99558 whole entry): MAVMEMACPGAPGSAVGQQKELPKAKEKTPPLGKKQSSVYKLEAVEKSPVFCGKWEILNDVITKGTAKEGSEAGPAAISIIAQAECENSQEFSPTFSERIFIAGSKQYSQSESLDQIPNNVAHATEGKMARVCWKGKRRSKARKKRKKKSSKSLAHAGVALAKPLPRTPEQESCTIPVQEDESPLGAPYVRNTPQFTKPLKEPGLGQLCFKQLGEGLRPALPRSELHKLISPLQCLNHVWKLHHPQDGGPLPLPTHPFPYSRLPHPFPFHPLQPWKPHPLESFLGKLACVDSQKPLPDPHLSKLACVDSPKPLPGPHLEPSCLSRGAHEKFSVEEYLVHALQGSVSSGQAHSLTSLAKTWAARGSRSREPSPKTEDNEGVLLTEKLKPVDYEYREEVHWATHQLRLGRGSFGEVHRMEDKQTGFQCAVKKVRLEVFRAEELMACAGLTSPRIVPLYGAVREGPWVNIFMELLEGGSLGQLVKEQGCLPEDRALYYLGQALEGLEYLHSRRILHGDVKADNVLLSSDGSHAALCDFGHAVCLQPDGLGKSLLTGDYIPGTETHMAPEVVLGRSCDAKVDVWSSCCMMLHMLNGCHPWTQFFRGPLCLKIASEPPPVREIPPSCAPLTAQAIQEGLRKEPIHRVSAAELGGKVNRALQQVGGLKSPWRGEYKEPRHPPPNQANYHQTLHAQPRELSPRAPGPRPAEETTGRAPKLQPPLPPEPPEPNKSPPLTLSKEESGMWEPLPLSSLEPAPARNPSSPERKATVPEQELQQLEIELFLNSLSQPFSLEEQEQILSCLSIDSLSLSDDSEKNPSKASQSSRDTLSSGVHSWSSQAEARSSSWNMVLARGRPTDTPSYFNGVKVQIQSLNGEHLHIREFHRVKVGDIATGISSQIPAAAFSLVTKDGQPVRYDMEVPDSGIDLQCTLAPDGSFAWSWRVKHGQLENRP

SMILES | IC50 [1] [nM] | IC50 [2] [nM]
Cc1nc(N)c2nc(-c3cccc(C#C[C@@](C)(O)c4ncc(C)s4)c3)ccc2n1 [Example 167, (R)-4-(3-(4-Amino-2-methylpyrido[3,2-d]pyrimidin-6-yl)phenyl)-2-(5-methylthiazol-2-yl)but-3-yn-2-ol] | 3470 | 12
Cc1cc([C@](C)(O)C#Cc2cccc(-c3ccc4ncnc(N)c4c3)c2)no1 [Example 104, (R)-4-[3-(4-Aminoquinazolin-6-yl)phenyl]-2-(5-methylisoxazol-3-yl)but-3-yn-2-ol] | 280 | 1.3
CN1CC[C@@](O)(C#Cc2cccc(-c3ccc4c(Br)cnc(N)c4n3)c2)C1=O [Example 112, (R)-3-[2-[3-(8-Amino-5-bromo-1,7-naphthyridin-2-yl)phenyl]ethynyl]-3-hydroxy-1-methyl-pyrrolidin-2-one] | 4.8 | ≤ 0.5
CN1CC[C@@](O)(C#Cc2cccc(-c3cc4c(N)ncnc4s3)c2)C1=O [Example 141, (R)-3-((3-(4-Aminothieno[2,3-d]pyrimidin-6-yl)phenyl)ethynyl)-3-hydroxy-1-methylpyrrolidin-2-one] | 2450 | 16
CN1CC[C@@](O)(C#Cc2cccc(N3CCCc4ncnc(N)c4C3)c2)C1=O [Example 224, (R)-3-((3-(4-Amino-5,7,8,9-tetrahydro-6H-pyrimido[5,4-c]azepin-6-yl)phenyl)ethynyl)-3-hydroxy-1-methylpyrrolidin-2-one] | > 5000 | 250
[2H]c1nc(N)c2nc(-c3cccc(C#C[C@]4(O)CCN(C)C4=O)c3)cc(C3CCNCC3)c2n1 [Example 287, (R)-3-((3-(4-Amino-8-(piperidin-4-yl)pyrido[3,2-d]pyrimidin-6-yl-2-d)phenyl)ethynyl)-3-hydroxy-1-methylpyrrolidin-2-one] | > 5000 | 44
COc1ccc(C#C[C@]2(O)CCN(C)C2=O)cc1-c1ccc2ncnc(N)c2n1 [Example 139, (R)-3-((3-(4-Aminopyrido[3,2-d]pyrimidin-6-yl)-4-methoxyphenyl)ethynyl)-3-hydroxy-1-methylpyrrolidin-2-one] | 22 | 2.9
Cc1nc(N)c2nc(-c3cccc(C#C[C@@](C)(O)c4nccs4)c3)ccc2n1 [Example 164, (R)-4-(3-(4-Amino-2-methylpyrido[3,2-d]pyrimidin-6-yl)phenyl)-2-(thiazol-2-yl)but-3-yn-2-ol] | 78 | 0.7
[2H]c1nc(N)c2nc(-c3cccc(C#C[C@]4(O)CCN(C)C4=O)c3)cc(C(C)C)c2n1 [Example 283, (R)-3-((3-(4-Amino-8-isopropylpyrido[3,2-d]pyrimidin-6-yl-2-d)phenyl)ethynyl)-3-hydroxy-1-methylpyrrolidin-2-one] | 1.4 | 0.6
CN1CC[C@@](O)(C#Cc2cccc(-c3nc4c(N)ncnc4o3)c2)C1=O [Example 142, (R)-3-((3-(7-Aminooxazolo[5,4-d]pyrimidin-2-yl)phenyl)ethynyl)-3-hydroxy-1-methylpyrrolidin-2-one] | > 5000 | 350
Cc1cc2cnc(-c3cccc(C#C[C@@](C)(O)c4nccs4)c3)nc2c(N)n1 [Example 51, (R)-4-(3-(8-Amino-6-methylpyrido[3,4-d]pyrimidin-2-yl)phenyl)-2-(thiazol-2-yl)but-3-yn-2-ol] | 480 | 1
Cc1nc(N)c2nc(-c3cccc(C#C[C@](C)(O)c4ccccn4)c3)ccc2n1 [Example 191, (S)-4-[3-(4-Amino-2-methyl-pyrido[3,2-d]pyrimidin-6-yl)phenyl]-2-(2-pyridyl)but-3-yn-2-ol] | 2980 | 15
CC1(C)CC[C@](O)(C#Cc2cccc(-c3ccc4ncnc(N)c4n3)c2)C1=O [Example 132, (S)-2-[2-[3-(4-Aminopyrido[3,2-d]pyrimidin-6-yl)phenyl]ethynyl]-2-hydroxy-5,5-dimethyl-cyclopentanone] | 730 | 46
CN1CC[C@@](O)(C#Cc2cccc(-c3cn4cncc4c(=O)[nH]3)c2)C1=O [Example 218, (R)-6-[3-[2-(3-Hydroxy-1-methyl-2-oxo-pyrrolidin-3-yl)ethynyl]phenyl]-7H-imidazo[1,5-a]pyrazin-8-one] | > 5000 | 78
CN1CC[C@@](O)(C#Cc2cccc(-c3ccc4c(c3)c(N)nn4C(=O)OC(C)(C)C)c2)C1=O [Example 169, (R)-tert-Butyl 3-amino-5-[3-[2-(3-hydroxy-1-methyl-2-oxo-pyrrolidin-3-yl)ethynyl]phenyl]indazole-1-carboxylate] | > 5000 | 1210
CN1CC[C@@](O)(C#Cc2cccc(-c3cc(C4CCOCC4)c4ncnc(N)c4n3)c2)C1=O [Example 255, (R)-3-((3-(4-Amino-8-(tetrahydro-2H-pyran-4-yl)pyrido[3,2-d]pyrimidin-6-yl)phenyl)ethynyl)-3-hydroxy-1-methylpyrrolidin-2-one] | 15 | 0.7
CN1CC[C@@](O)(C#Cc2cccc(-c3ccc4ncnc(NCC(F)F)c4n3)c2)C1=O [Example 241, (R)-3-((3-(4-((2,2-Difluoroethyl)amino)pyrido[3,2-d]pyrimidin-6-yl)phenyl)ethynyl)-3-hydroxy-1-methylpyrrolidin-2-one] | 930 | 56
CN1CC[C@@](O)(C#Cc2cccc(-c3nc4c(N)nccc4c(=O)[nH]3)c2)C1=O [Example 55, (R)-8-Amino-2-(3-((3-hydroxy-1-methyl-2-oxopyrrolidin-3-yl)ethynyl)phenyl)pyrido[3,4-d]pyrimidin-4(3H)-one] | 29 | ≤ 0.5
C=Cc1cc(-c2cccc(C#C[C@]3(O)CCN(C)C3=O)c2)nc2c(N)ncnc12 [Example 314, (R)-3-((3-(4-Amino-8-vinylpyrido[3,2-d]pyrimidin-6-yl)phenyl)ethynyl)-3-hydroxy-1-methylpyrrolidin-2-one] | 14 | 2.9

Now from value to molecule:

IC50 [1] [nM] | IC50 [2] [nM] | SMILES
23 | 1 | Cc1ccc(C#C[C@]2(O)CCN(C)C2=O)cc1-c1ncc2ncnc(N)c2n1 [Example 188, (R)-3-((3-(8-Aminopyrimido[5,4-d]pyrimidin-2-yl)-4-methylphenyl)ethynyl)-3-hydroxy-1-methylpyrrolidin-2-one]
6.6 | ≤ 0.5 | Cc1ccc(C#C[C@]2(O)CCn3ccnc32)cc1-c1nc2c(N)ncnc2s1 [Example 183, (R)-7-[2-[3-(7-Aminothiazolo[5,4-d]pyrimidin-2-yl)-4-methyl-phenyl]ethynyl]-5,6-dihydropyrrolo[1,2-a]imidazol-7-ol]
> 5000 | 2290 | Nc1ncnc2cnc(-c3cccc(C#C[C@]4(O)CCc5cccnc54)c3)nc12 [Example 144, (R)-7-((3-(8-Aminopyrimido[5,4-d]pyrimidin-2-yl)phenyl)ethynyl)-6,7-dihydro-5H-cyclopenta[b]pyridin-7-ol]
720 | 45 | Cc1nccc2ccc(-c3cccc(C#C[C@]4(O)CCN(C)C4=O)c3)nc12 [Example 280, (R)-3-Hydroxy-1-methyl-3-((3-(8-methyl-1,7-naphthyridin-2-yl)phenyl)ethynyl)pyrrolidin-2-one]
280 | 10 | CC(C)Cc1ccc(C#C[C@]2(O)CCN(C)C2=O)cc1-c1ncc2ccnc(N)c2n1 [Example 54, (R)-3-((3-(8-Aminopyrido[3,4-d]pyrimidin-2-yl)-4-isobutylphenyl)ethynyl)-3-hydroxy-1-methylpyrrolidin-2-one]
> 5000 | 840 | Cc1nnc([C@](C)(O)C#Cc2ccc(C)c(-c3ccc4ccnc(N)c4c3)c2)o1 [Example 78, (R)-4-[3-(1-Amino-7-isoquinolyl)-4-methyl-phenyl]-2-(5-methyl-1,3,4-oxadiazol-2-yl)but-3-yn-2-ol]
61 | 0.9 | Cc1nnc([C@](C)(O)C#Cc2cccc(-c3ncc4ccnc(N)c4n3)c2)o1 [Example 18, (R)-4-[3-(8-Aminopyrido[3,4-d]pyrimidin-2-yl)phenyl]-2-(5-methyl-1,3,4-oxadiazol-2-yl)but-3-yn-2-ol]
84 | 1.3 | Cc1ccc(C#C[C@]2(O)CCc3cccnc32)cc1-c1ncc2ccnc(N)c2n1 [Example 75, (R)-7-((3-(8-Aminopyrido[3,4-d]pyrimidin-2-yl)-4-methylphenyl)ethynyl)-6,7-dihydro-5H-cyclopenta[b]pyridin-7-ol]
11 | ≤ 0.5 | CN1CC[C@@](O)(C#Cc2cccc(-c3ncc4c(I)cnc(N)c4n3)c2)C1=O [Example 102, (R)-3-((3-(8-Amino-5-iodopyrido[3,4-d]pyrimidin-2-yl)phenyl)ethynyl)-3-hydroxy-1-methylpyrrolidin-2-one]
> 5000 | 55 | Cc1ccc(C#C[C@@](C)(O)c2nccs2)cc1-c1ccc2ccnc(N)c2c1 [Example 68, (R)-4-[3-(1-Amino-7-isoquinolyl)-4-methyl-phenyl]-2-thiazol-2-yl-but-3-yn-2-ol]
66 | 2.3 | Cc1cc(C#C[C@]2(O)CCN(C)C2=O)cc(-c2ncc3c(C)cnc(N)c3n2)c1 [Example 76, (R)-3-[2-[3-(8-Amino-5-methyl-pyrido[3,4-d]pyrimidin-2-yl)-5-methyl-phenyl]ethynyl]-3-hydroxy-1-methyl-pyrrolidin-2-one]
